The target in one assay is T1, CDK2/CyclinE (Homo sapiens, UniProt P24941).
T1 construct: GST; purchased ProQinase GmbH (Freiburg, Germany); host or cells: insect cells (Sf9)
The experiment in a line: CDK2/CycE kinase assay (TR-FRET). The assay is classed as biochemical. Particulars: 2 mM ATP (high ATP); median; read-out: CDK2/CyclinE, 2 mM ATP (high ATP) IC50 - [mol/l] (median). An excerpt:
2.4 CDK2/CycE Kinase Assay
CDK2/CycE-inhibitory activity of compounds of the present invention was quantified employing the CDK2/CycE TR-FRET assay as described in the following paragraphs.
Recombinant fusion proteins of GST and human CDK2 and of GST and human CycE, expressed in insect cells (Sf9) and purified by Glutathion-Sepharose affinity chromatography, were purchased from ProQinase GmbH (Freiburg, Germany). As substrate for the kinase reaction biotinylated peptide biotin-Ttds-YISPLKSPYKISEG (C-terminus in amid form) was used which can be purchased e.g. form the company JERINI peptide technologies (Berlin, Germany).
For the assay 50 nanoL of a 100 fold concentrated solution of the test compound in DMSO was pipetted into a black low volume 384 well microtiter plate or a black 1536 well microtiter plate (both Greiner Bio-One, Frickenhausen, Germany), 2 microL of a solution of CDK2/CycE in aqueous assay buffer [50 millimol/L Tris/HCl pH 8.0, 10 millimol/L MgCl2, 1.0 millimol/L dithiothreitol, 0.1 millimol/L sodium ortho-vanadate, 0.01% (v/v) Nonidet-P40 (Sigma)] were added and the mixture was incubated for 15 min at 22° C. to allow pre-binding of the test compounds to the enzyme before the start of the kinase reaction. Then the kinase reaction was started by the addition of 3 microL of a solution of adenosine-tri-phosphate (ATP, 3.33 millimol/L=>final conc. in the 5 microL assay volume is 2 millimol/L) and substrate (1.25 micromol/L=>final conc. in the 5 microL assay volume is 0.75 micromol/L) in assay buffer and the resulting mixture was incubated for a reaction time of 25 min at 22° C. The concentration of CDK2/CycE was adjusted depending of the activity of the enzyme lot and was chosen appropriate to have the assay in the linear range, typical concentrations were in the range of 10 ng/mL. The reaction was stopped by the addition of 3 microL of a solution of TR-FRET detection reagents (0.333 micromol/L streptavidine-XL665 [Cisbio Bioassays, Codolet, France] and 1.67 nanomol/L anti-RB(pSer807/pSer811)-antibody from BD Pharmingen [#558389] and 2 nanomol/L LANCE EU-W1024 labeled anti-mouse IgG antibody [Perkin-Elmer, product no. AD0077, as an alternative a Terbium-cryptate-labeled anti-mouse IgG antibody from Cisbio Bioassays can be used]) in an aqueous EDTA-solution (167 millimol/L EDTA, 0.2% (w/v) bovine serum albumin in 100 millimol/L HEPES pH 7.5).
The resulting mixture was incubated 1 h at 22° C. to allow the formation of complex between the phosphorylated biotinylated peptide and the detection reagents. Subsequently the amount of phosphorylated substrate was evaluated by measurement of the resonance energy transfer from the Eu-chelate to the streptavidine-XL. Therefore, the fluorescence emissions at 620 nm and 665 nm after excitation at 350 nm was measured in a TR-FRET reader, e.g. a Pherastar (BMG Labtechnologies, Offenburg, Germany) or a Viewlux (Perkin-Elmer). The ratio of the emissions at 665 nm and at […] was taken as the measure for the amount of phosphorylated substrate. The data were normalised (enzyme reaction without inhibitor=0% inhibition, all other assay components but no enzyme=100% inhibition).
Background: In TR-FRET formats the signal depends on donor and acceptor labels being close together.

The target of a further assay is T2, CDK12 (Homo sapiens, UniProt Q9NYV4).
T2 construct: endogenous in cells; host or cells: CAL-120 human breast cancer cells (DSMZ ACC 459)
Nature of the assay: CDK12 nuclear protein level: immunofluorescence/high content analysis in CAL-120 cells. In kind it is cell-based. The note with it: for DC50: CAL-120 cells, 24 h, nuclear CDK12 staining intensity, median, read-out: CDK12 degradation IF DC50 - [mol/l] (median); for (IC50 CDK12 high ATP) to (Degradation DC50 CDK12) ratio: ratio of IC50 CDK12 hATP (2 mM ATP) to DC50 CDK12 (IF, CAL-120). The method, then: 6. CDK12 Nuclear Protein Level: Immunofluorescence/High Content Analysis
In the context of the present invention, the term “DC50 CDK12” refers to the DC50 values obtained according to the assay described in this section (6) herein below, i.e. the DC50 values for the degradation of CDK12.:
CAL-120 human breast cancer cells (DSMZ ACC 459) are seeded in 1536-well microtiter plates (800 cells per well) containing 50 nanoL of compounds in Dose-Response. Control wells received DMSO or Reference Example 1. Plates are then incubated for 24 h at 37° C. in an humidified incubator and fixed with 4% PFA for 10 min. Then immunofluorescence (IF) against CDK12 (CellSignalling CDK12 Antibody #11973, rabbit, 1:100 dilution) is performed using standard IF protocols. Cells are then stained with Hoechst 33342 (Life Technologies, H-1399, 0.1 microg/mL) and imaged on an automated confocal microscopy system (e.g. Perkin Elmer Opera Phenix). Nuclear and cytoplasmic intensity as well as the nuclear/cytoplasmic intensity ratio is determined by automated image analysis using custom generated scripts (MetaXpress). Data is then transferred to Genedata Screener software, normalized to DMSO and control and DC50 values (degrading concentration to achieve 50% reduction of nuclear CDK12 staining intensity relative to controls) are reported.

The structures appear in SMILES notation. pIC50: −log10 of the molar value.

T2 sequence (Q9NYV4 whole entry): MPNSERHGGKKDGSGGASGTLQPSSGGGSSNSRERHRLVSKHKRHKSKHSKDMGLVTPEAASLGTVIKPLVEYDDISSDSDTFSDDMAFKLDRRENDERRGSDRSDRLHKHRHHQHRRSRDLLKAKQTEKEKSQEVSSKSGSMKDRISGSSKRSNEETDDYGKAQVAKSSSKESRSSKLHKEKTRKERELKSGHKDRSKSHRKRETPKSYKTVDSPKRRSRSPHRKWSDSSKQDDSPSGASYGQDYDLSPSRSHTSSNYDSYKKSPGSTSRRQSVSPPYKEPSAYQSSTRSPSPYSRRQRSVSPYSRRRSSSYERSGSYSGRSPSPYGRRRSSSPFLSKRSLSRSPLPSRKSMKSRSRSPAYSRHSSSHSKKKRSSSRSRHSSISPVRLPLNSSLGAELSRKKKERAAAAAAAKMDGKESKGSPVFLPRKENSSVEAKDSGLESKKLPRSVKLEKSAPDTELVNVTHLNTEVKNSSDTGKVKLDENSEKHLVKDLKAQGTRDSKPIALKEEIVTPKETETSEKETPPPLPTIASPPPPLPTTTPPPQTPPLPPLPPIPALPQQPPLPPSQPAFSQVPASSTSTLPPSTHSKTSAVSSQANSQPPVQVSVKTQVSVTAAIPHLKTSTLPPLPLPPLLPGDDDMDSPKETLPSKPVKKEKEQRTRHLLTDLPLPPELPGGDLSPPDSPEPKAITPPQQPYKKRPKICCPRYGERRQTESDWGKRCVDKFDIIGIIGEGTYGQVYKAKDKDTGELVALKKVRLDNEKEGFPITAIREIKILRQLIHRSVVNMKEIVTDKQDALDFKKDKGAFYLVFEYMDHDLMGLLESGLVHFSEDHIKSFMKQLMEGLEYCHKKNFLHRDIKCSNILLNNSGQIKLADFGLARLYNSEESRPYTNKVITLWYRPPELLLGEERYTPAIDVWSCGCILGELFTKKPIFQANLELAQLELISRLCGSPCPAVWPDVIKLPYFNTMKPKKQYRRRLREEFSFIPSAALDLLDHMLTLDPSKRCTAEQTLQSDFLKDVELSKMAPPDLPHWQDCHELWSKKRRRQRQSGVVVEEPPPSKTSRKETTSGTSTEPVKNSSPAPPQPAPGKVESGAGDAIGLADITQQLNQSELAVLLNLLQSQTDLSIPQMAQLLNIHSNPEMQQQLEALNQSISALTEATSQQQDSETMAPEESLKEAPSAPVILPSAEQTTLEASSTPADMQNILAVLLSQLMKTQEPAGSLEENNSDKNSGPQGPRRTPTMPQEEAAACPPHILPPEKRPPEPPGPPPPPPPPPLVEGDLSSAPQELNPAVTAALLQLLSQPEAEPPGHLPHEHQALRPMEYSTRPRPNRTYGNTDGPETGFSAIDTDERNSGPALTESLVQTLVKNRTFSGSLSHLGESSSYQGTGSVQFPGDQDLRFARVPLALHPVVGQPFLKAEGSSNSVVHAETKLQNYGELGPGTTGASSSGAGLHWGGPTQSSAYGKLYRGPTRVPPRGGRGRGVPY
T2 sequence (O75909 whole entry partner): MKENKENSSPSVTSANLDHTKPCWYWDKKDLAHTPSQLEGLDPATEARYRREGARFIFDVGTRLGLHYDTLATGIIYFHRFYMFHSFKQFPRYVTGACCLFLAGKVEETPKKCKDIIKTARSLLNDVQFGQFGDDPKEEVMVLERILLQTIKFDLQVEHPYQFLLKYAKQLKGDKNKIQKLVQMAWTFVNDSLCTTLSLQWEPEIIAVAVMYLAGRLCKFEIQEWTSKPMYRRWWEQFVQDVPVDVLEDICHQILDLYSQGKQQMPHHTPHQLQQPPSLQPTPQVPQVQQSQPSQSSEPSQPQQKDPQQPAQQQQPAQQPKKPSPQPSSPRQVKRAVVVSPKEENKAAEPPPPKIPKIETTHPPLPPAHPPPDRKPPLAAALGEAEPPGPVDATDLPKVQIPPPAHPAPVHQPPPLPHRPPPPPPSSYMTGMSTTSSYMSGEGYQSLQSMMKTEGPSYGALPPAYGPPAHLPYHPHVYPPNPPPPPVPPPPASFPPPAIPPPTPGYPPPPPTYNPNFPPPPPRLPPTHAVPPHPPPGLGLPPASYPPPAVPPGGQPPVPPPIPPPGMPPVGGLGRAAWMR

`CC(C)(O)C1CC(n2nc(NCc3nc4ccccc4[nH]3)c3ncc(C4CC4)nc32)C1` (mixture of isomers) [Example 48, 2-[cis/trans-3-(3-{[(1H-benzimidazol-2-yl)methyl]amino}-6-cyclopropyl-1H-pyrazolo[3,4-b]pyrazin-1-yl)cyclobutyl]propan-2-ol]: the pIC50 at CDK2/CyclinE is less than 4.70. At CDK12, the DC50 came out at 7.12 nM.

In the case of `c1ccc2[nH]c(CNc3nn(C4CCOC4)c4nc(C5CC5)cnc34)nc2c1` (racemic) [Example 10, (±)-N-[(1H-benzimidazol-2-yl)methyl]-6-cyclopropyl-1-[oxolan-3-yl]-1H-pyrazolo[3,4-b]pyrazin-3-amine], at CDK2/CyclinE, the pIC50 was less than 4.70. In addition, at CDK12, the DC50 came out at 40.8 nM and the “(IC50 CDK12 high ATP) to (Degradation DC50 CDK12) ratio” value is given as more than 4901.

For `CN1CCCC(n2nc(NCc3nc4ccccc4[nH]3)c3ncc(C4CC4)nc32)CC1` (racemic) [Example 34, (±)-N-[(1H-benzimidazol-2-yl)methyl]-6-cyclopropyl-1-(1-methylazepan-4-yl)-1H-pyrazolo[3,4-b]pyrazin-3-amine], the pIC50 on CDK2/CyclinE is less than 4.70. In addition, the DC50 at CDK12 was found to be 14.2 nM.

In the case of `CN1CCC(n2nc(NCc3nc4ccccc4[nH]3)c3ncc(C4CC4)nc32)C1` (racemic) [Example 35, (±)-N-[(1H-benzimidazol-2-yl)methyl]-6-cyclopropyl-1-(1-methylpyrrolidin-3-yl)-1H-pyrazolo[3,4-b]pyrazin-3-amine], on CDK2/CyclinE, the pIC50 was less than 4.70. In addition, on CDK12, the DC50 was found to be 19.1 nM and the “(IC50 CDK12 high ATP) to (Degradation DC50 CDK12) ratio” value was more than 1046.

Regarding `CC1CC(n2nc(NCc3nc4ccccc4[nH]3)c3ncc(C4CC4)nc32)CCN1C` (racemic) [Example 41, (±)-cis/trans-N-[(1H-benzimidazol-2-yl)methyl]-6-cyclopropyl-1-(1,2-dimethylpiperidin-4-yl)-1H-pyrazolo[3,4-b]pyrazin-3-amine], the pIC50 on CDK2/CyclinE was less than 4.70. The DC50 on CDK12 is 4.05 nM.

In the case of `CC1COCCC1n1nc(NCc2nc3ccccc3[nH]2)c2ncc(C3CC3)nc21` (racemic) [Example 42, (±)-cis/trans-N-[(1H-benzimidazol-2-yl)methyl]-6-cyclopropyl-1-(3-methyloxan-4-yl)-1H-pyrazolo[3,4-b]pyrazin-3-amine], at CDK2/CyclinE, the pIC50 is less than 4.70. Besides, at CDK12, the DC50 was 11.1 nM and the “(IC50 CDK12 high ATP) to (Degradation DC50 CDK12) ratio” value is given as more than 2322.

For the compound `CC1CC(n2nc(NCc3nc4ccccc4[nH]3)c3ncc(C4CC4)nc32)CCO1` (racemic) [Example 44, (±)-cis/trans-N-[(1H-benzimidazol-2-yl)methyl]-6-cyclopropyl-1-(2-methyloxan-4-yl)-1H-pyrazolo[3,4-b]pyrazin-3-amine], the pIC50 on CDK2/CyclinE was less than 4.70. The DC50 at CDK12 was found to be 34.9 nM.

Turning to `COCCC(C)n1nc(NCc2nc3ccccc3[nH]2)c2ncc(C3CC3)nc21` (racemic) [Example 57, (±)-N-[(1H-benzimidazol-2-yl)methyl]-6-cyclopropyl-1-(4-methoxybutan-2-yl)-1H-pyrazolo[3,4-b]pyrazin-3-amine], the pIC50 at CDK2/CyclinE was less than 4.70. Moreover, on CDK12, the DC50 stood at 170 nM and the “(IC50 CDK12 high ATP) to (Degradation DC50 CDK12) ratio” value is more than 118.

As to `CC(CCN(C)C)n1nc(NCc2nc3ccccc3[nH]2)c2ncc(C3CC3)nc21` (racemic) [Example 62, (±)-N-[(1H-benzimidazol-2-yl)methyl]-6-cyclopropyl-1-[4-(dimethylamino)butan-2-yl]-1H-pyrazolo[3,4-b]pyrazin-3-amine], the pIC50 at CDK2/CyclinE was less than 4.70. For the same compound, the DC50 at CDK12 came out at 676 nM.

On to `c1ccc2[nH]c(CNc3nn(C4CCOC4)c4nc(C5CC5)cnc34)nc2c1` (single isomer, unassigned) [Example 17, (+) or (−)-N-[(1H-benzimidazol-2-yl)methyl]-6-cyclopropyl-1-(oxolan-3-yl)-1H-pyrazolo[3,4-b]pyrazin-3-amine], for which the pIC50 at CDK2/CyclinE was less than 4.70. On CDK12, the DC50 came out at 24.8 nM and the “(IC50 CDK12 high ATP) to (Degradation DC50 CDK12) ratio” value was more than 807.

Consider `c1ccc2[nH]c(CNc3nn(C4CCOC4)c4nc(C5CC5)cnc34)nc2c1` (single isomer, unassigned) [Example 18, (-) or (+) -N-[(1H-benzimidazol-2-yl)methyl]-6-cyclopropyl-1-[oxolan-3-yl]-1H-pyrazolo[3,4-b]pyrazin-3-amine], for which, at CDK2/CyclinE, the pIC50 was less than 4.70. Besides, at CDK12, the DC50 is 17.5 nM and the “(IC50 CDK12 high ATP) to (Degradation DC50 CDK12) ratio” value was more than 1142.

On to `CN1CCCC(n2nc(NCc3nc4ccccc4[nH]3)c3ncc(C4CC4)nc32)CC1` (single isomer, unassigned) [Example 37, (+) or (−)-N-[(1H-benzimidazol-2-yl)methyl]-6-cyclopropyl-1-[(4R*)-1-methylazepan-4-yl]-1H-pyrazolo[3,4-b]pyrazin-3-amine], for which the pIC50 at CDK2/CyclinE is less than 4.70. Further, at CDK12, the DC50 is 12.6 nM and the “(IC50 CDK12 high ATP) to (Degradation DC50 CDK12) ratio” value is reported as more than 1589.

As to `CN1CCCC(n2nc(NCc3nc4ccccc4[nH]3)c3ncc(C4CC4)nc32)CC1` (single isomer, unassigned) [Example 38, (−) or (+)-N-[(1H-benzimidazol-2-yl)methyl]-6-cyclopropyl-1-[(4R*)-1-methylazepan-4-yl]-1H-pyrazolo[3,4-b]pyrazin-3-amine], the pIC50 on CDK2/CyclinE was less than 4.70. Moreover, at CDK12, the DC50 worked out at 13.2 nM and the “(IC50 CDK12 high ATP) to (Degradation DC50 CDK12) ratio” value is listed as more than 1516.

With `CC(CCN(C)C)n1nc(NCc2nc3ccccc3[nH]2)c2ncc(C3CC3)nc21` (single isomer, unassigned) [Example 63, (+) or (−)-N-[(1H-benzimidazol-2-yl)methyl]-6-cyclopropyl-1-[4-(dimethylamino)butan-2-yl]-1H-pyrazolo[3,4-b]pyrazin-3-amine], at CDK2/CyclinE, the pIC50 was less than 4.70. Besides, at CDK12, the DC50 came to 912 nM and the “(IC50 CDK12 high ATP) to (Degradation DC50 CDK12) ratio” value is more than 22.

`CC(CCN(C)C)n1nc(NCc2nc3ccccc3[nH]2)c2ncc(C3CC3)nc21` (single isomer, unassigned) [Example 64, (−) or(+)-N-[(1H-benzimidazol-2-yl)methyl]-6-cyclopropyl-1-[4-(dimethylamino)butan-2-yl]-1H-pyrazolo[3,4-b]pyrazin-3-amine]: the pIC50 on CDK2/CyclinE is less than 4.70. Also, on CDK12, the DC50 came to 82.6 nM and the “(IC50 CDK12 high ATP) to (Degradation DC50 CDK12) ratio” value is recorded as more than 242.

In the case of `CN1CCC(n2nc(NCc3nc4ccccc4[nH]3)c3ncc(C4CC4)nc32)C1` (single isomer, unassigned) [Example 78, (+) or (−)-N-[(1H-benzimidazol-2-yl)methyl]-6-cyclopropyl-1-(1-methylpyrrolidin-3-yl)-1H-pyrazolo[3,4-b]pyrazin-3-amine], the pIC50 on CDK2/CyclinE was less than 4.70. Besides, on CDK12, the DC50 was 33.6 nM and the “(IC50 CDK12 high ATP) to (Degradation DC50 CDK12) ratio” value is more than 596.

The values are drawn from patent publication US20230192700A1, “PYRAZOLOPYRAZINES ACTING ON CANCERS VIA INHIBITION OF CDK12” (Bayer Aktiengesellschaft, priority 2020, published 2023).
